Values belong to the compound of their own block, whether it stands above or below them. Where no end group is shown, it is not given here.
Key:
in vivo = conditions: male, Sprague-Dawley, rat, in vivo, inhaled or intranasal, 2.5 mg/kg
Experimental: (§1) Male SD (Sprague-Dawley) rats (280-300 g) were provided to adapt to each separate cage of the animal facility at least 2 days. At this point, foods and water were freely allowed to the rats, which were exposed to light for 12 hours and kept in dark for another 12 hours. One day before the testing, the rats were provided with water only and kept from eating food.
(§2) The peptides of the Preparation Examples or the Example, and mannitol(^3H-Mannitol, 14.2 Ci/mmol, PerkinElmer) were used to prepare the individual preparation groups given as follows:
(§3) The first preparation group was a control group and prepared as an aqueous solution of 5% (w/v) dextrose containing mannitol without a peptide.
(§4) The second preparation group was prepared as an aqueous solution of 5% (w/v) dextrose containing mannitol and the FCIGRL peptide of the Preparation Example 1.
(§5) The third preparation group was prepared as an aqueous solution of 5% (w/v) dextrose containing mannitol and the Ac-FCIGRL peptide of the Preparation Example 2.
(§6) The fourth preparation group was prepared as an aqueous solution of 5% (w/v) dextrose containing mannitol and the FCIGRL-NH2 peptide of the Example 1.
(§7) The male SD rats provided above 1. were divided into four groups, each having five male SD rats. The first to fourth preparation groups were nasally administered into the first to fourth rat groups, respectively.
(§8) At this point, the dosage of each solution was 70 μl per rat, where the dosages of mannitol and each peptide were 20 μCi/kg and 2.5 mg/kg, respectively.
(§9) Prior to the nasal administration, each rat was anesthetized to implant a cannula into the jugular vein of it. The solution was taken into the nostrils of the rat through a micropipette (Eppendorf) with caution as not to affect the nasal mucous membrane, while the rat was lying on the back to rest its head sideways against the wall.
(§10) 250 μl of blood was collected from each rat in 10, 20, 40, 60, 120, 180, 240 and 360 minutes after administration of the solution through jugular vein cannulation. The blood was subjected to centrifugal separation at 13,000 rpm for 10 minutes to obtain 100 μl of plasma. A scintillation cocktail solution was added to the plasma. Then, an LS6500 Universal counter (Beckman Coulter, Brea, Calif., USA) was used to measure the radiation quantity for the quantitative analysis of mannitol.
(§11) The mannitol concentration in blood from the rats of each group is graphed in FIG. 1. Table 1 presents the pharmacokinetic parameters, that is, AUC, Cmax, Tmax, and T1/2 of mannitol.

[1] = buffer solution that is slightly acid (pH 5.0), neutral, and basic; cited from earlier work
nasal mucous membrane = experiment: Nasal administration of 3H-mannitol with or without peptide to rats; mannitol concentration in blood (mucous membrane permeability); conditions: nasal, rats, peptide 2.5 mg/kg
Experimental: as §1, §2, §3, §4, §5, §6, §7, §8, §9, §10, §11

[2] = preparation group containing mannitol and the peptide, for nasal administration

AUC(0-t) (in vivo): 0.101 ng·h/mL | Cmax (in vivo): 0.0306 ± 0.00602 ng/mL | Tmax (in vivo): 0.583 h | half-life (in vivo): 3.59 ± 0.0515 h
Compound: OC[C@@H](O)[C@@H](O)[C@H](O)[C@H](O)CO [Mannitol, mannitol]

Compound: H-FCIGRL-OH [FCIGRL, Phe-Cys-Ile-Gly-Arg-Leu]
maintenance of the intact form of peptide over time [1]: cannot maintain the intact form of peptide over time | difference in the blood mannitol concentration versus mannitol alone (nasal mucous membrane): no significant difference

Compound: FCIGRL-NH2 [FCIGRL-NH2]
AUC0-360min of mannitol relative to the administration group of mannitol alone (nasal mucous membrane; p<0.01): 3.63 times | Cmax of mannitol relative to the administration group of mannitol alone (nasal mucous membrane; p<0.01): 2.68 times

Compound: Ac-FCIGRL [Ac-FCIGRL]
difference in the blood mannitol concentration versus mannitol alone (nasal mucous membrane): no significant difference

Compound: Ac-FCIGRL-NH2 [Ac-FCIGRL-NH2]
solubility of the peptide [2]: such a low solubility of the peptide as to make nasal administration of the peptide impossible

Source: patent publication US10307458B2, “Peptide as absorption enhancer and composition containing same” (SOONCHUNHYANG UNIVERSITY INDUSTRY ACADEMY COOPERATION …, priority 2014, dated 2019)
